# Entries after “also recorded” stand apart in the source; their conditions may differ. Read-outs that look alike come from different tables or passages of the source. Marks after values point to notes of the source that are not given here. No end group written: not given here.
# How the values were obtained:
# HF = test: Cell proliferation, MTS assay; assay type: cell-based, human; details: 0.4 nM-4 μM, 96 well plates
# Description: Cell proliferation was evaluated by measuring cell density as a function of time by two different colorimetric assays. The MTS colorimetric assay (CellTitre 96 Aqueous Assay by Promega) is based on dehydrogenase conversion of MTS (methyl tetrazolium salt) by viable cells to […] (Ge M. Tang, G., Ryan. T. J. and Malik. A. B., “Fibrinogen degradation product fragment D induces endothelial cell detachment by activation of cell-mediated fibrinolysis”, J. Clin. Inves., 90:2508-2516 (1992)); the methylene blue (MB) assay is based on the staining of monolayer cells after their fixation, and reading the absorbence of the absorbed dye.
# The MTS assay for viable cells was performed as follows: 30 μL of freshly prepared MTS/PMS were added to each well; following 2 hrs incubation at 37° C., the plates were placed on a computer driven microplate reader (Anthos HT-II, Salzburg, Austria), programmed to shake the plate for 1 minute before reading the optical density (OD) of the dye at 490 nm. The measurements were repeated following 4 and 6 hours of incubation.
# Peptides (Cα (SEQ ID NO:4), […], PreCγ (SEQ ID NO:2) and CαE (SEQ ID NO:3)), up to 1 μg/mL or 100 μg/mL fibrinogen or thrombin (final concentrations) were added to the culture medium and cell numbers were assayed by day 3 using the MTS assay. The change in cell number was compared with that observed versus saline control. Of the 5 peptides tested at dosages up to 10 μg/mL (approximately equimolar to 1 μg/mL fibrinogen), none of the peptides exerted significant effect on cell proliferation (FIG. 7).
# BAEC = test: Chemotaxis, micro-Boyden chamber assay; assay type: cell-based, bovine
# Description: Chemotaxis was evaluated using 48-well plastic Microtaxis micro-Boyden chambers. Polycarbonate filters with pore size of 8 μm were coated with fibronectin for 2 hours at 37° C. Conditioned medium from 3T3 cells served as a positive control. Test solution (26 μl) containing the tested peptides or protein or medium with no additions that served as control were placed in the lower chamber, covered with the filter. 50 μl cell suspension was introduced to the upper chamber of each well. The number of cells/well varied in the range of 5,000-10,000 in different experiments. The device loaded with cells was incubated at 37° C. for 4-5 hours. The filter was then removed and the non-migrating cells on its upper part were carefully wiped off with a damp cotton swab. The filter was fixed in methanol and stained with Accustain (modified Wright stain solution Sigma Diagnostics: St. Lois, Mo.). Cells that crossed or were retained within the filter were counted microscopically at low magnification so that the viewing field corresponded to the whole area of each well. Each experimental variant was performed in duplicated or triplicates and the data from, three successful experiments were normalized to the values of the positive control and averaged.
# The chemotactic response of BAEC to a soluble gradient of […], the most haptotactic of the peptides studied was as follows. The results can be seen in FIG. 6. […] A similar, though more moderate, chemotaxis response to Cβ (SEQ ID NO:1) was obtained with HF.
# tested cell lines = test: Haptotaxis assay, statements over the tested cell lines; assay type: cell-based; details: ligands covalently bound to SB; for haptotactic response / cell binding to SB-ligand, in words: near confluent cell cultures
# Description: (§1) Peptides or fibrinogen were covalently bound to CNBr activated sepharose beads (SB) (Pharmacia, Piscataway, N.J.) using techniques previously used to bind albumin, fibrinogen and thrombin. Briefly, CNBr-activated sepharose 4B (Pharmacia) was washed with 1N HCl, and suspended in the coupling buffer (pH 8.3), following the protocol supplied by the manufacturer. The peptides were dialyzed against the coupling buffer to remove Tris. Peptides (1 mg) were not highly water soluble. The peptides were dissolved in 1 mL 70% ethanol or dimethylformamide, and were then mixed into the coupling buffer containing 1 mL CNBr-activated sepharose. The suspension was gently agitated overnight, then centrifuged 500×g to pack the beads. This procedure covalently binds more than 95% of proteins or peptides including fibrinogen or peptides-CαE (SEQ ID NO:3), Cβ (SEQ ID NO:1) and preCγ (SEQ ID NO:2) to the beads determined by Abs280 readings of the solutions.
# (§2) The migratory/adhesion response of cells to proteins (such as fibrinogen) or peptides covalently bound to SB was measured as follows. Cells were grown in 6 or 12 well plates to near confluence or in suspension until they covered about ½ to ⅔ of the plate surface. At that point, about […] of a suspension containing 50% v/v SB coated with the test protein or peptide were added to the plate and dispersed by gentle shaking for 1 min. The plate was then returned to the incubator and examined at different times by inverted phase microscopy.
# (§3) The SB (naked or ligand bound) sedimented onto the nearly confluent cell layer and occasionally made physical contact with cell membranes on the plate (ascribed to Brownian motion or micro-convection currents). […] Typically, 300 beads (but not less then 200) were counted in each well and the ratio of SB bound to the cells relative to total number SB could be calculated (SB bound/SB total). Counting the percentage of SB attached to the cell surface at different time intervals provided a quantitative assay of the kinetics of the attachment of coated beads to cells. Negative control with uncoated SB or positive controls with SB-fibrinogen were employed with at least 3 wells measured for each. The statistical error was calculated from the square root of the total counts.
# (§4) The peptides of the present invention were synthesized and tested in cell culture systems as described above. Essentially, peptides were covalently attached to sepharose beads to form SB-Cα (SEQ ID NO:4), SB-Cβ (SEQ ID NO:1), SB-PreCγ (SEQ ID NO:2), SB-Cγ (SEQ ID NO:5) and SB-CαE (SEQ ID NO:3), respectively, as was fibrinogen to form SB-Fib. The SB-peptide combination was then incubated with cultured cells. […] The haptotactic potency of the peptides is summarized in Table 3 with the percentage of SB-Fib/peptide attached to cells (by day 4) given in columns 2-5 of Table 3.
# EC cells (BAEC) = test: FACS analysis of binding of FITC-labeled peptides; assay type: cell-based, bovine; details: 10 μg/ml or 100 μg/ml, medium with 0.1% albumin
# Description: EC and HF cell monolayers were washed and then incubated with trypsin-versene. Cells were then washed with growth medium and resuspended in medium with 0.1% albumin. FITC-labeled peptide-Cβ (SEQ ID NO:1) was incubated with 5×10^5 EC cells (10 μg/ml or 100 μg/ml) or with 2.5×10^5 HF cells (100 μg/ml) in medium with 0.1% albumin. FITC-labeled peptide-CαE (SEQ ID NO:3) and Cα (SEQ ID NO:4) (10 μg/ml) was incubated with 5×10^5 EC cells in medium with 0.1% albumin. Cells were then washed with PBS and 1% albumin. Cells were resuspended in PBS and 1% albumin and then filtered through a mesh for FACS analysis, in which the FITC tluorescence was measured for each cell.
# The control is without FITC-labeled peptide (background fluorescence).
# In competition experiments, cells were incubated with various concentrations of unlabeled Cβ (SEQ ID NO:1) for 15 mins, an aliquot of Cβ^FITC (4 mM) was added and the sample was subjected to FACS analysis. […] The Cβ^FITC (SEQ ID NO:1) uptake experiments best fitted a linear-quadratic curve-fit.
# [1] = tested on: bovine aortic endothelial cells (EC, BAEC); test: Haptotaxis assay: attachment of ligand-coated SB to cultured cells; assay type: cell-based; details: for % Binding of peptide-coated SB to normal cultured cells: percentage of SB-ligand attached to cells by day 4
# Description: as §1, §2, §3, §4
# [2] = tested on: human ovarian carcinoma cells (OV-1063); test: as above; assay type: cell-based; details: percentage of SB-ligand attached to cells by day 4
# Description: as §1, §2, §3, §4
# [3] = tested on: normal murine fibroblasts (MF); test: as above; assay type: cell-based; details: percentage of SB-ligand attached to cells by day 4
# Description: as §1, §2, §3, §4
# [4] = tested on: murine mammary adenocarcinoma cells (EMT-6); test: as above; assay type: cell-based; details: percentage of SB-ligand attached to cells by day 4
# Description: as §1, §2, §3, §4
# [5] = tested on: porcine smooth muscle cells (SMC); test: as above; assay type: cell-based; details: for % Binding of peptide-coated SB to normal cultured cells: percentage of SB-ligand attached to cells by day 4
# Description: as §1, §2, §3, §4
# [6] = tested on: normal human skin fibroblasts (HF); test: Haptotaxis assay: attachment of ligand-coated sepharose beads (SB) to cultured cells; assay type: cell-based; details: for % Binding of peptide-coated SB to normal cultured cells: percentage of SB-ligand attached to cells by day 4
# Description: as §1, §2, §3, §4
substance,measurement,setting,value
"EADHEGTHSTKRGHAKSRP (Equivalent to the c-terminus of fibrinogen alpha-chain) [Cα, reference compound]",proliferative response of HF (MTS proliferation assay),HF,none of these peptides stimulated or inhibited proliferation
same,"chemotactic response of BAEC, in words","BAEC; soluble gradient, up to 40 μg/ml, conditioned medium = 100% chemotaxis",elicited no response
same,"haptotactic response / cell binding to SB-ligand, in words",tested cell lines,inactive
same,"haptotactic response / cell binding to SB-ligand, in words",tested cell lines; listed as peptide-Cα,no cell adhesive effects
same,"binding/uptake of FITC-labeled peptide by FACS, in words",EC cells (BAEC),did not bind
"FITC-labeled peptide Cα: FITC-labeled peptide Cα (SEQ ID NO:4), negative control (EADHEGTHSTKRGHAKSRP; not fully specified (N-terminus); also: FITC label, position not given here) [reference compound]","binding/uptake of FITC-labeled peptide by FACS, in words",EC cells (BAEC),bound only slightly (non-specifically)
"FITC-labeled peptide Cγ: FITC-labeled peptide Cγ (SEQ ID NO:5) (LTIGEGQQHHLGGAKQAGDV; not fully specified (N-terminus); also: FITC label, position not given here) [reference compound]","binding/uptake of FITC-labeled peptide by FACS, in words",EC cells (BAEC),bound only slightly (non-specifically)
KTRWYSMKKTTMKIIPFNRL (Equivalent to an internal sequence of fibrinogen gamma-chain) [PreCγ],"cell binding / haptotactic response to SB-ligand, in words",[1],greatest haptotactic response
same,proliferative response of HF (MTS proliferation assay),HF,none of these peptides stimulated or inhibited proliferation
same,"chemotaxis, in words",BAEC; concentrations of up to 40 μM,significant chemotaxis
same,"haptotactic response / cell binding to SB-ligand, in words",tested cell lines,significant haptotactic responses
same,"haptotactic response / cell binding to SB-ligand, in words",tested cell lines; listed as preCγ,highly haptotactic; also recorded: most potent
"LTIGEGQQHHLGGAKQAGDV (Equivalent to the c-terminus of fibrinogen gamma-chain) [Cγ, control peptide homologous to the C-terminus of the fibrinogen γ chain, γ 392-411, reference compound]","cell binding / haptotactic response to SB-ligand, in words",[1],only negligible effect
same,"cell binding / haptotactic response to SB-ligand, in words",[1]; listed as peptide Cγ,bound variably
same,proliferative response of HF (MTS proliferation assay),HF,none of these peptides stimulated or inhibited proliferation
same,"haptotactic response / cell binding to SB-ligand, in words",tested cell lines,minor negligible activity
"RGADYSLRAVRMKIRPLVTQ (Equivalent to the c-erminus of fibrinogen alpha-E-chain) [CαE, haptotactic peptide homologous to the C-terminus of the fibrinogen αE chain, αE 828-847]",proliferative response of HF (MTS proliferation assay),HF,none of these peptides stimulated or inhibited proliferation
same,"haptotactic response / cell binding to SB-ligand, in words",tested cell lines,to a lesser degree; also recorded: significant haptotactic responses
SB-Cγ: peptide Cγ (SEQ ID NO:5) covalently attached to sepharose beads (LTIGEGQQHHLGGAKQAGDV; also: attached to sepharose beads) [reference compound],% Binding of peptide-coated SB to normal cultured cells,[2],0%
same,% Binding of peptide-coated SB to normal cultured cells,[3],0%
same,% Binding of peptide-coated SB to normal cultured cells,[4],2%
same,% Binding of peptide-coated SB to normal cultured cells,[5],1%
same,"cell binding / haptotactic response to SB-ligand, in words",[1],Variable haptotaxis
same,% Binding of peptide-coated SB to normal cultured cells,[1],2 to 93* %
same,% Binding of peptide-coated SB to normal cultured cells,[6],2%
SB-PreCγ: peptide preCγ (SEQ ID NO:2) covalently attached to sepharose beads (KTRWYSMKKTTMKIIPFNRL; also: attached to sepharose beads),"cell binding to SB-ligand, in words",[5],bound
same,% Binding of peptide-coated SB to normal cultured cells,[5],98%
same,"cell binding / haptotactic response to SB-ligand, in words",[1],bound
same,% Binding of peptide-coated SB to normal cultured cells,[1],100%
same,"cell binding to SB-ligand, in words",[6],bound
same,% Binding of peptide-coated SB to normal cultured cells,[6],100%
same,cell lines excepted from binding to SB-ligand (all other tested lines bound),tested cell lines,"with the exception of OV-1063, keratinocytes and cells derived from a leucocytic lineage"

# From patent publication US20070009571A1, “Novel haptotactic peptides” (Hadasit Medical Research Services & Development Ltd., priority 1998, published 2007)
